Laboratory results: ChEMBL document CHEMBL4630901 (2021)

Experiments:
Settings in all cases: Compound concentration 10.0 uM
[1] = molecular target: Adenosine receptor A3 (Homo sapiens) (UniProt P0DMS8)
[2] = molecular target: Delta-type opioid receptor (Homo sapiens) (UniProt P41143)
[3] = molecular target: 5-hydroxytryptamine receptor 3A (Homo sapiens) (UniProt P46098)
[4] = molecular target: Muscarinic acetylcholine receptor M3 (Homo sapiens) (UniProt P20309)
[5] = molecular target: T1, 5-hydroxytryptamine receptor 2C (Homo sapiens) (UniProt P28335)
T1 sequence (whole entry): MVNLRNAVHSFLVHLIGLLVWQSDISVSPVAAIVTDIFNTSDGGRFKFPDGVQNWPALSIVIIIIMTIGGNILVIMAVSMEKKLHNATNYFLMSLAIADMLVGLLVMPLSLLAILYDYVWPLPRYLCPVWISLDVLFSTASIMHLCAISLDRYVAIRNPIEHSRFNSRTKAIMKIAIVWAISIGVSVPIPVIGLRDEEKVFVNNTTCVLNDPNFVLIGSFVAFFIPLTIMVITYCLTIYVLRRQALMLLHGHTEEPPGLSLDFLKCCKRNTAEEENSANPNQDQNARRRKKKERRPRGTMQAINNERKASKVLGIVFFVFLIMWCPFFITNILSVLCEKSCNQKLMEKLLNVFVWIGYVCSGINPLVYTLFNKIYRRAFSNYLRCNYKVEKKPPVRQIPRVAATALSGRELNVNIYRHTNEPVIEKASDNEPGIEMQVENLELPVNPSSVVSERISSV

[6] = molecular target: T2, Muscarinic acetylcholine receptor M2 (Homo sapiens) (UniProt P08172)
T2 sequence (whole entry): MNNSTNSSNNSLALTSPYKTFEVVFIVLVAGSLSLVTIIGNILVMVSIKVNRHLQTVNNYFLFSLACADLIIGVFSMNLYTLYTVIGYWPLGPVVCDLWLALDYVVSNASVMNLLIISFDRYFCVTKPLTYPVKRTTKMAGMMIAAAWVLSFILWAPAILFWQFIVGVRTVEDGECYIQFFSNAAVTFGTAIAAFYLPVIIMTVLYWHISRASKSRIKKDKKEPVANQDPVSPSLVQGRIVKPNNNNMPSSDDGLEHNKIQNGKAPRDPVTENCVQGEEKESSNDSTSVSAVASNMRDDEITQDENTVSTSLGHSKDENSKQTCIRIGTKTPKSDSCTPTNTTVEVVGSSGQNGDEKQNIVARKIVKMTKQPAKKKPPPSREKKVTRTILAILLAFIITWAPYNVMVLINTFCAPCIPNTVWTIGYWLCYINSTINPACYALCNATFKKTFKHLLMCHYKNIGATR

[7] = molecular target: 5-hydroxytryptamine receptor 7 (Homo sapiens) (UniProt P34969)
[8] = molecular target: D(1B) dopamine receptor (Homo sapiens) (UniProt P21918)
[9] = molecular target: D(1A) dopamine receptor (Homo sapiens) (UniProt P21728)
[10] = molecular target: T3, 5-hydroxytryptamine receptor 1A (Homo sapiens) (UniProt P08908)
T3 sequence (whole entry): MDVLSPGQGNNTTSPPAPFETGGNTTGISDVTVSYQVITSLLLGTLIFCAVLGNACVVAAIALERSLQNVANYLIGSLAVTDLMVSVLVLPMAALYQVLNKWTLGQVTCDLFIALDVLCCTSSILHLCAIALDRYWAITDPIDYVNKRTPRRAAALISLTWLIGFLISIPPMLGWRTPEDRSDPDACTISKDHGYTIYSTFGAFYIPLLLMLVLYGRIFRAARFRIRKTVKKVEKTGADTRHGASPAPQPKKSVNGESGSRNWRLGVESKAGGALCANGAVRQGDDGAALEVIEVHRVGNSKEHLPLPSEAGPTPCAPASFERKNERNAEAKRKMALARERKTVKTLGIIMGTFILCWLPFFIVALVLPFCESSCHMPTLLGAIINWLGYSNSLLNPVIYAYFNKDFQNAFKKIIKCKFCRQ

[11] = molecular target: D(4) dopamine receptor (Homo sapiens) (UniProt P21917)
[12] = molecular target: Cannabinoid receptor 1 (Homo sapiens) (UniProt P21554)
[13] = molecular target: Beta-1 adrenergic receptor (Homo sapiens) (UniProt P08588)
Rattus norvegicus = species on record: Rattus norvegicus
[14] = molecular target: Muscarinic acetylcholine receptor M5 (Homo sapiens) (UniProt P08912)
[15] = molecular target: GABA-A receptor; anion channel (Rattus norvegicus) (UniProt O09028+P15431+P18506+P18508+P19969+P20236+P23574+P23576+P28471+P28473+P30191+P62813+P63079+P63138+Q91ZM7+Q9ES14)
[16] = molecular target: Alpha-1B adrenergic receptor (Homo sapiens) (UniProt P35368)
[17] = molecular target: 5-hydroxytryptamine receptor 6 (Homo sapiens) (UniProt P50406)
[18] = molecular target: T4, Alpha-1A adrenergic receptor (Homo sapiens) (UniProt P35348)
T4 sequence (whole entry): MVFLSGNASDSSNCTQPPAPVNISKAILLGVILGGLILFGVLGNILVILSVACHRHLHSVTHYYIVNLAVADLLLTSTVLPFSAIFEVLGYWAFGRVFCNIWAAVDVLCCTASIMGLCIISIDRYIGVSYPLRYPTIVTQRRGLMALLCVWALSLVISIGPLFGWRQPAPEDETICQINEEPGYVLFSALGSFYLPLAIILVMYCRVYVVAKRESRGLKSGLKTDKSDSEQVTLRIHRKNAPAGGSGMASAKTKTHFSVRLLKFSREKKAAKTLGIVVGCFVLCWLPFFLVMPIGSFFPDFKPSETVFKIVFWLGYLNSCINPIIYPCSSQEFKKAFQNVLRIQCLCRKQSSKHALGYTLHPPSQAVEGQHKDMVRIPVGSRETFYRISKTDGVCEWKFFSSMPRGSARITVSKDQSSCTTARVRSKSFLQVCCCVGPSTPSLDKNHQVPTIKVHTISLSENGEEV

[19] = molecular target: Kappa-type opioid receptor (Homo sapiens) (UniProt P41145)
[20] = molecular target: Alpha-1D adrenergic receptor (Homo sapiens) (UniProt P25100)

Chain of D(1A) dopamine receptor (Homo sapiens) (P21728 whole entry): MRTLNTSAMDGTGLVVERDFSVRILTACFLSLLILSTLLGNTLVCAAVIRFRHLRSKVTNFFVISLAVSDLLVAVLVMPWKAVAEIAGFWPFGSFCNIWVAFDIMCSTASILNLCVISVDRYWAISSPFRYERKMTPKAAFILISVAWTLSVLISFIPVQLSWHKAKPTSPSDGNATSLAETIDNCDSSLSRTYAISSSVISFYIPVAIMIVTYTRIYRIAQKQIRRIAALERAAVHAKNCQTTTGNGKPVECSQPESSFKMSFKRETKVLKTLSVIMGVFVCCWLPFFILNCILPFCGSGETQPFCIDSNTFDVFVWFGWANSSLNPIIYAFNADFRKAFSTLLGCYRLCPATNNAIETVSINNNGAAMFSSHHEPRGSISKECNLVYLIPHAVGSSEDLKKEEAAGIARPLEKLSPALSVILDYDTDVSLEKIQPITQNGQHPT
Chain of Alpha-1B adrenergic receptor (Homo sapiens) (P35368 whole entry): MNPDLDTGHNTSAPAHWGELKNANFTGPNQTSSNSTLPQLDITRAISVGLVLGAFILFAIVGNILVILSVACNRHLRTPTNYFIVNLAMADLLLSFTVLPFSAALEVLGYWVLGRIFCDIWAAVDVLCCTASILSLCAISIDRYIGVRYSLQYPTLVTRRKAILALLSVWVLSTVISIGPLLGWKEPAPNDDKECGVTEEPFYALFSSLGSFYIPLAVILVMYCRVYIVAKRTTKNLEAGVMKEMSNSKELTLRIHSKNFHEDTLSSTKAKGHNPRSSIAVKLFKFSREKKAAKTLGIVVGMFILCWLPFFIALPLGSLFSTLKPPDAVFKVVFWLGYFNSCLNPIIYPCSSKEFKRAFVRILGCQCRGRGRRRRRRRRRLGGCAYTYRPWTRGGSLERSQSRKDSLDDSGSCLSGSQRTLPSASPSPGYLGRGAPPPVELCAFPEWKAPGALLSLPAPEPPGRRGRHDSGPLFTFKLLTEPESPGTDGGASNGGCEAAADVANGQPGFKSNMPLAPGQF
Chain of Muscarinic acetylcholine receptor M3 (Homo sapiens) (P20309 whole entry, looked up): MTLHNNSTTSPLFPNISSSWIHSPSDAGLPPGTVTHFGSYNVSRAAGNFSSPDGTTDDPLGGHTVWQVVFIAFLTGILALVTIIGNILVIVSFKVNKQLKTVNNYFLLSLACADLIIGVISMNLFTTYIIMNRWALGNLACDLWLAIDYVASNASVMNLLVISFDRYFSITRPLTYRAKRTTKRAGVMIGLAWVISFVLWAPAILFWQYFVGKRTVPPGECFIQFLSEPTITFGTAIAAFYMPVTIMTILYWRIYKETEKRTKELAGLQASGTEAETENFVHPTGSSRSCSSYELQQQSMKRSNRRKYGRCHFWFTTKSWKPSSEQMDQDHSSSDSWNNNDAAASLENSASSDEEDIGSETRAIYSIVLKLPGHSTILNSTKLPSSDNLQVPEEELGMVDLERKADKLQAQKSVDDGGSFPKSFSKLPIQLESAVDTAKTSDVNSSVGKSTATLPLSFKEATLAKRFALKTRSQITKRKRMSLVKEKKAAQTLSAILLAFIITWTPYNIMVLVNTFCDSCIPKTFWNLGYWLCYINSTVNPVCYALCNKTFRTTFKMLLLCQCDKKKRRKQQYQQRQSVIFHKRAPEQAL
Chain of 5-hydroxytryptamine receptor 6 (Homo sapiens) (P50406 whole entry): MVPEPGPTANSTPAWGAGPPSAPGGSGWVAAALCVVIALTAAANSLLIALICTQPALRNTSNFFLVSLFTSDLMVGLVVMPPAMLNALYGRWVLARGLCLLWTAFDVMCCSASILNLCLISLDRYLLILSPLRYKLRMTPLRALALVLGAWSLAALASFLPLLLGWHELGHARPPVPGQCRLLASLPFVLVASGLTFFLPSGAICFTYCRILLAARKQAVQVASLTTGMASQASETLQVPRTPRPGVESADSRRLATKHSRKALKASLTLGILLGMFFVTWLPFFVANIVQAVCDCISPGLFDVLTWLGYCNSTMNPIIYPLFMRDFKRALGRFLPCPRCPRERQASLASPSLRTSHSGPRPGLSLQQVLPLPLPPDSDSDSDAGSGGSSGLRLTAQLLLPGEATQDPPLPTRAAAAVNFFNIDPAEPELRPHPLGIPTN
Chain of D(4) dopamine receptor (Homo sapiens) (P21917 whole entry): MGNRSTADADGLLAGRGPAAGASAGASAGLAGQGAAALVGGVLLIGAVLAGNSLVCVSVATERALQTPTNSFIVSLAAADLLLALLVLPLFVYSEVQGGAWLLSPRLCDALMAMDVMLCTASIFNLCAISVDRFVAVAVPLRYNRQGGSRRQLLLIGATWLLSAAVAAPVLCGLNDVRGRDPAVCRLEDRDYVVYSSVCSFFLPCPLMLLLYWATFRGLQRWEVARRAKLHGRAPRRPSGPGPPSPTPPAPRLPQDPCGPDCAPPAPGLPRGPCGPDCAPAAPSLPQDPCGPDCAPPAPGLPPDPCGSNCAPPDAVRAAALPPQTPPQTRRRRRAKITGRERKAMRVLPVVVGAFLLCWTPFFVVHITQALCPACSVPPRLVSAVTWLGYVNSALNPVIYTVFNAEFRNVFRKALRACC
Chain of 5-hydroxytryptamine receptor 3A (Homo sapiens) (P46098 whole entry): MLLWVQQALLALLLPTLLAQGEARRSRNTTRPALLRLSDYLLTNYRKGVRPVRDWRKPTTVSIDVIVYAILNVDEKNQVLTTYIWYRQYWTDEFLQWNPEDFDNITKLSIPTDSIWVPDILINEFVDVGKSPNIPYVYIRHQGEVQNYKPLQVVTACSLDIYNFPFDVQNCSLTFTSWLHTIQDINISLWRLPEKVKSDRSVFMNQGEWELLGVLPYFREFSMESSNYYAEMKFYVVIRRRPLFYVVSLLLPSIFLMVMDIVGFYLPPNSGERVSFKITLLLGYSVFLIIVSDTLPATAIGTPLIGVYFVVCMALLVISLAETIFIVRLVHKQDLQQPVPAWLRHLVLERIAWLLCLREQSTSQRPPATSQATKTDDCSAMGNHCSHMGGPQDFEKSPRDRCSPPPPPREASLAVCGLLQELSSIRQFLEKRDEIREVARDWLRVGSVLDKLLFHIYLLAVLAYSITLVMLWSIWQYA
Chain of Delta-type opioid receptor (Homo sapiens) (P41143 whole entry): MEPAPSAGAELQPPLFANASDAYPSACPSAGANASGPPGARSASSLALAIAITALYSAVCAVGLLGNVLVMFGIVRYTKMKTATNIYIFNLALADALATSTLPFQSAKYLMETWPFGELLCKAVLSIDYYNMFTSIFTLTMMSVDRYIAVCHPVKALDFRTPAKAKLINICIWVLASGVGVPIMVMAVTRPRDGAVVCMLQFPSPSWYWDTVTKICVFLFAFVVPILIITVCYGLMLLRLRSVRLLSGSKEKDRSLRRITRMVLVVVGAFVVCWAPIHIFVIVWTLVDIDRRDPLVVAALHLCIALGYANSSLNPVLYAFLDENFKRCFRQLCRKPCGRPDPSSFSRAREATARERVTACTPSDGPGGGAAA
Chain of Muscarinic acetylcholine receptor M5 (Homo sapiens) (P08912 whole entry): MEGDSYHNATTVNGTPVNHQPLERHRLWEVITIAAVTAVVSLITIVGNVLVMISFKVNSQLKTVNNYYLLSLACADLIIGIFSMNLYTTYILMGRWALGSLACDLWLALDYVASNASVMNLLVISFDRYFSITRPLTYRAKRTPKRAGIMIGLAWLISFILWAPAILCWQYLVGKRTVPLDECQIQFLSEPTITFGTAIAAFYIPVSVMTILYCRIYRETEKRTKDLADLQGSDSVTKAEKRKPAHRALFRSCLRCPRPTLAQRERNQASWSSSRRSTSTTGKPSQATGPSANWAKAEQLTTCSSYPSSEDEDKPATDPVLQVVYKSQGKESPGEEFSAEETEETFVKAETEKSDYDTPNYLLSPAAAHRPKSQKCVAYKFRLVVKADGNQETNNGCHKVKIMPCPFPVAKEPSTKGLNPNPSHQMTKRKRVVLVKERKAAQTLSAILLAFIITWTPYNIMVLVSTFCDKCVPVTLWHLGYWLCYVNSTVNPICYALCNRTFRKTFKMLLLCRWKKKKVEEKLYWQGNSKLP
Chain of 5-hydroxytryptamine receptor 7 (Homo sapiens) (P34969 whole entry): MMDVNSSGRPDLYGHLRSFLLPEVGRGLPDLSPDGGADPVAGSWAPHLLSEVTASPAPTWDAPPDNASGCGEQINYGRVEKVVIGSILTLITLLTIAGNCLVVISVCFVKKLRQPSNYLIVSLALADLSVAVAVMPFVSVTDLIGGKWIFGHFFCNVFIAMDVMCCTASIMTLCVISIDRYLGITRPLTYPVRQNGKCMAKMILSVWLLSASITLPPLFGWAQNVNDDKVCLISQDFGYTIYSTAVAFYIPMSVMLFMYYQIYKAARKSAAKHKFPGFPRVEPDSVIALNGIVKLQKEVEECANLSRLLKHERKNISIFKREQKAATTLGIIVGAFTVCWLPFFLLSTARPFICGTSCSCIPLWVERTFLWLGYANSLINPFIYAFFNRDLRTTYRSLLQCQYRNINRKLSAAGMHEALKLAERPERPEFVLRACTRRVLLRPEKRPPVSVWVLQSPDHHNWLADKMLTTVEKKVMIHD
Chain of D(1B) dopamine receptor (Homo sapiens) (P21918 whole entry): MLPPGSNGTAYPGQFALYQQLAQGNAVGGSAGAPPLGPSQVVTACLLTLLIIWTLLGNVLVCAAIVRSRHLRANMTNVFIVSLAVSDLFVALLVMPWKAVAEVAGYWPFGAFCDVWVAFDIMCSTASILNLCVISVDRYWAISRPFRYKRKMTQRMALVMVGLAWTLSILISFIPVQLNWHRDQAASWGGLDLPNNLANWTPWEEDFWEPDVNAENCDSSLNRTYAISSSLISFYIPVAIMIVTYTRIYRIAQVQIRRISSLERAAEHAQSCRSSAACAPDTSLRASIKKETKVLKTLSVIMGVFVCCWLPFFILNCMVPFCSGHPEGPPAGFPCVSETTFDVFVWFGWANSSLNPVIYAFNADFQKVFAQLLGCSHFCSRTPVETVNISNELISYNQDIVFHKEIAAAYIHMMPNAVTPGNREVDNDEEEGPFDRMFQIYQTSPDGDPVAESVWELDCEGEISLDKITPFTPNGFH

Row | SMILES | inhibition [2] [%] | inhibition [3] [%] | inhibition [4] [%] | inhibition [5] [%] | inhibition [6] [%] | inhibition [7] [%] | inhibition [8] [%] | inhibition [9] [%] | inhibition [10] [%] | inhibition [11] [%] | inhibition [13] [%] | inhibition (Rattus norvegicus) [%] | inhibition [14] [%] | inhibition [15] [%] | inhibition [16] [%] | inhibition [17] [%] | inhibition [18] [%] | inhibition [19] [%] | inhibition [20] [%] | other results
1 | Cc1c(N2CCCC2)nc2ccc(Br)cc2c1C(=O)NC[C@H](CCC(=O)O)c1ccccc1Cl [BAY-6672] | 15.4 | 37.7 | -0.57 | 2.98 | 14.6 | 0.4 | 25 | 13.8 | 5.62 | 1.48 | 15.7 | -2.43 | 9.92 | 8.16 | -4.96 | 6.59 | 1.72 | 15.4 | 3.44 | inhibition [1]: 15%; inhibition [12]: 10%
2 | Cc1c(N2CCNCC2)nc2ccc(Br)cc2c1C(=O)NC[C@H](CCC(=O)O)c1ccccc1Cl [BAY-403] | 36 | 86 | 13.7 | 12.7 | 13.8 | 13 | 5.3 | 31.6 | 47.1 | 5.89 | 12.6 | 20 | -0.13 | -0.16 | -2.31 | 1.76 | 23.3 | 17.7 | 16 | –
